“Also recorded” adds a separate entry of the source.
Assays:
ubiquitin [1] = biological target: T1, ubiquitin (Schizosaccharomyces pombe, UniProt P0CH06); experiment: Membrane-bound peptide array probed with Cy5-labeled ubiquitin; format: binding, S. pombe; details: 15-mer peptides on cellulose membrane, 0.4 µM Cy5-labeled ubiquitin, 1 h, RT, fluorescence at 650 nm, mean of two membranes; compared with Pep1
T1 construct: plasmid coding for S. pombe ubiquitin with an N-terminal 6xhistidine-tag, TEV-cleavage site as well as an N-terminal free cysteine; made in house; host or cells: E. coli BL21(DE3)
Source text: Two identical membrane-bound peptide arrays, each with 50 peptide spots, were purchased from JPT peptide technologies as PepSpots™ (Germany). Here, peptides are covalently attached to a cellulose membrane with the C-terminal amino acid through a β-alanine. Each peptide spot contained approximately 2.44·10^15 molecules or 4 nmol peptides. For detection of binding, ubiquitin was labeled at the N-terminal free cysteine with Cy5 maleimide fluorophore (GE Healthcare), which has an emission maximum at 666 nm. Ubiquitin or His6-SUMO (50 µL–70 µM) was reduced with 10 times molar excess tris(2-carboxyethyl)phosphine (TCEP), and incubated with one aliquot of 10 µL, 3 mM Cy5 in dimethyl sulfoxide (DMSO) at RT for 2 h. Excess Cy5 was neutralized with 10 µL 14.3 mM βME, and the mixture was separated on a gravity flow Sepharose column (from NanoTemper Monolith Protein Labeling Kit Red-NHS (Amine Reactive)). The column was equilibrated with tris buffered saline with Tween 20 (TBS-T) buffer (20 mM Tris, 150 mM NaCl, 1 mM EDTA, 500 µL/L Tween 20, pH 7). The ubiquitin/SUMO-Cy5 mixture (73.5 µL) was loaded on the column, followed by 426.5 µL TBS-T buffer. To evaluate the concentration of ubiquitin and Cy5, the absorbance at 280 nm and 650 nm of each fraction was measured on a ND-1000 NanoDrop spectrophotometer (Thermo Fischer Scientific). Fractions where the absorbance peaked at both wavelengths simultaneously were pooled and used for the peptide array.
All wash and incubation steps were performed at RT on a rocking table. The membranes were first washed with 25 mL TBS-T buffer two times for 5 min. Next, the membranes were blocked with blocking buffer (TBS-T with 5% (w/v) skim milk powder) for 1 h and washed for 10 min in TBS-T buffer and the background signal at 650 nm acquired using a Chemidoc imager (Bio-Rad). […] After the incubation, the membranes were washed with TBS-T buffer for five times 5 min and the fluorescence signal at 650 nm acquired on the Chemidoc imager. The fluorescent signal was quantified using the image processing software ImageJ. The intensity from each peptide spot was read using the Microarray Profile plugin. The intensities acquired before adding ubiquitin were subtracted from the signals acquired after. Finally, the mean between the corresponding values from the two membranes was calculated and reported as the signal intensity for each peptide.

SUMO [2] = experiment: Membrane-bound peptide array probed with Cy5-labeled SUMO; format: binding; details: 15-mer peptides on cellulose membrane, 0.4 µM Cy5-labeled His6-SUMO, 1 h, RT, fluorescence at 650 nm, mean of two membranes
Source text: Two identical membrane-bound peptide arrays, each with 50 peptide spots, were purchased from JPT peptide technologies as PepSpots™ (Germany). Here, peptides are covalently attached to a cellulose membrane with the C-terminal amino acid through a β-alanine. Each peptide spot contained approximately 2.44·10^15 molecules or 4 nmol peptides. For detection of binding, ubiquitin was labeled at the N-terminal free cysteine with Cy5 maleimide fluorophore (GE Healthcare), which has an emission maximum at 666 nm. […] To evaluate the concentration of ubiquitin and Cy5, the absorbance at 280 nm and 650 nm of each fraction was measured on a ND-1000 NanoDrop spectrophotometer (Thermo Fischer Scientific). Fractions where the absorbance peaked at both wavelengths simultaneously were pooled and used for the peptide array.
All wash and incubation steps were performed at RT on a rocking table. […] After the incubation, the membranes were washed with TBS-T buffer for five times 5 min and the fluorescence signal at 650 nm acquired on the Chemidoc imager. The fluorescent signal was quantified using the image processing software ImageJ. The intensity from each peptide spot was read using the Microarray Profile plugin. […] Finally, the mean between the corresponding values from the two membranes was calculated and reported as the signal intensity for each peptide.

SUMO [3] = details: read-out: SUMO affinity of known SUMO interacting motif; cited from earlier work
Source text: To investigate the binding specificity, we tested the peptides for interaction with the structurally related small ubiquitin-like modifier (SUMO), a ubiquitin-like protein also used as posttranslational modification, but involved in different signaling pathways. SUMO binds to extended stretches of residues with an interaction motif consisting of φφXφ, often followed by negatively charged residues or phosphorylation sites, where φ represents hydrophobic residues. Thus, known SUMO binding features partly overlap the features extracted above. Fluorescently labeled SUMO was added to ...

ubiquitin [4] = details: read-out: Kd of known UIM sequence for ubiquitin; cited from earlier work
ubiquitin [5] = biological target: T1, ubiquitin; experiment: NMR titration of 15N-ubiquitin (1H-15N HSQC chemical shift perturbations); format: binding, S. pombe; details: for Kd: peptide or protein titrated into 100 µM 15N-ubiquitin, 20 mM NaH2PO4, 150 mM NaCl, 5 mM TCEP, pH 7.5, global fit of CSPs to one-site-binding model
Method: For interaction of the peptides with ^15N-ubiquitin, the lyophilized peptides were dissolved in MilliQ water and pH adjusted to 7.5. […] For the titrations of ubiquitin with each peptide, except the WT Dss1 peptide, 100 µM ubiquitin in NMR buffer was measured as one end point, and the 1 mM peptide and 100 µM ubiquitin as the other. Then, the peptide sample was titrated into the ubiquitin sample with titration points at 0, 50, 150, 300, 400, 500 and 1000 µM peptide. […] NMR samples were centrifuged 13.000×g for 5 min and transferred to either single-use 5 mm NMR tubes (Bruker) or 3 mm (Shigemi). To prepare NMR samples of ^15 N-labeled ubiquitin with full-length Dss1 and variants, lyophilized proteins were dissolved directly in the NMR buffer. The variants were each dissolved in 510 µL NMR buffer with 100 µM ubiquitin. The concentration of Dss1 in the NMR sample was determined by measuring the absorbance at 280 nm on a ND-1000 NanoDrop spectrophotometer, calibrated with the NMR buffer with 100 µM ubiquitin. The concentration of Dss1 varied between variants, depending on the purification yield. For all titrations, seven points of varying Dss1 concentration were recorded. To prepare NMR samples of ^15N-labeled ubiquitin with Spd1, Spd1 was buffer exchanged to MilliQ using a 3 kDa cut-off Amicon Ultra-0.5 ml centrifugal filter (Merk Millipore), lyophilized and resuspended in NMR buffer with 100 µM ubiquitin. […] For experiments with ubiquitin, 200 µL 1 mM ubiquitin was buffer exchanged to MilliQ water using a 3 kDa cut-off Amicon Ultra-0.5 ml centrifugal filter (Merk Millipore), lyophilized, and subsequently resuspended in 100 µL NMR buffer with 1 mM Dss1 for a final ubiquitin concentration of 2 mM and 1 mM, respectively. All samples were transferred to 3 mm (Shigemi) NMR tubes.
All NMR spectra were recorded on Bruker Avance III HD 600 MHz spectrometer with a Bruker proton-optimized quadruple resonance NMR ‘inverse’ (QCI) cryoprobe, a Bruker Avance III HD 750 MHz spectrometer with a Bruker proton-optimized triple resonance NMR ‘inverse’ (TCI) cryoprobe and a Bruker Avance Neo 800 MHz spectrometer with a Bruker carbon/nitrogen-optimized triple-resonance NMR 'observe' (TXO) cryoprobe. […] All spectra were zero-filled, apodized using cosine bells in all dimensions, Fourier transformed, and the zero-order phase was corrected manually using either nmrDraw, a component of NmrPipe or qMDD if spectra were recorded using non-linear-sampling (NLS). All spectra were analysed using the Analysis software.
The CSPs were fitted to a one-site-binding model using global fit, and the Kd-values are extracted using Eq. 2.2 Δδobs=Δδmax∙Pt+Lt+Kd-Pt+Lt+Kd^2-4Pt∙Lt^1/2/2∙Pt.
Peaks giving rise to large uncertainties in the fit, either due to weak signals or overlap, were removed after a first iteration of fitting, and the fit repeated on the remaining dataset.

T1 sequence (P0CH06 1-76 limits assumed): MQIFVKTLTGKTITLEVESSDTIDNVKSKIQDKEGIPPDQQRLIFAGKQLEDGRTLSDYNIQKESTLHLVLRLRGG

Row | Substance | emission intensity of bound Cy5-ubiquitin (apparent affinity) (ubiquitin [1]) | also measured
1 | GDDTWWENNWDDEDI [Pep11, 15-mer variant of Dss1 UBS1, peptide array] | increased emission intensity | 
2 | GEAEERVVVISSSED [Pep48] |  | emission intensity of bound Cy5-SUMO (apparent affinity) (SUMO [2]): lower-than-average affinity; Kd (SUMO [3]): ~100 µM
3 | LKVDVIDLTIESSSD [Pep47] |  | emission intensity of bound Cy5-SUMO (apparent affinity) (SUMO [2]): high apparent affinity; Kd (SUMO [3]): 1 µM
4 | GDDDLWENNWDDEDI [Pep25, 15-mer variant of Dss1 UBS1, peptide array] | increased emission intensity | 
5 | GDDTLWEPNWDDEDI [Pep40, 15-mer variant of Dss1 UBS1, peptide array] | enhanced emission | 
6 | IQEDWELAERLQREE [Pep46, reference compound] | only weak emission intensities | Kd (ubiquitin [4]): 100 µM
7 | GDDTLWAAAWDDEDI [Pep36, 15-mer variant of Dss1 UBS1, peptide array] | reduced binding | 
8 | EDPDLKAAIQESLRE [Pep45, reference compound] | only weak emission intensities | Kd (ubiquitin [4]): 20 µM
9 | Ac-DLWENNWDLWENNWD-NH2 [Pep43] | highest emission intensity | Kd (ubiquitin [5]): 1300 ± 120 µM
10 | Ac-DDTLWWENNWWDDED-NH2 [Pep42] | increased emission intensity; also recorded: highest emission intensity | Kd (ubiquitin [5]): 1200 ± 90 µM
11 | GDDTLWEVNWDDEDI [Pep38, 15-mer variant of Dss1 UBS1, peptide array] | enhanced emission; also recorded: increased ubiquitin affinity | 
12 | GDDTLWETNWDDEDI [Pep39, 15-mer variant of Dss1 UBS1, peptide array] | enhanced emission; also recorded: increased ubiquitin affinity | 
13 | GDDTFWENNWDDEDI [Pep5, 15-mer variant of Dss1 UBS1, peptide array] | increased emission intensity | 
14 | GDDTDWENNWDDEDI [Pep8, 15-mer variant of Dss1 UBS1, peptide array] | increased emission intensity | 
15 | GDDTLWEDDWDDEDI [Pep20, 15-mer variant of Dss1 UBS1, peptide array] | increased emission intensity | 
16 | Ac-DDTLWWEDDWWDDED-NH2 [PepDWD] |  | Kd (ubiquitin [5]): 600 ± 30 µM
17 | GDDTLWPNPWDDEDI [Pep37, 15-mer variant of Dss1 UBS1, peptide array] | no or negative effects on binding | 
18 | GDDTLWENNWWDDED [Pep41, 15-mer variant of Dss1 UBS1, peptide array] | increased emission intensity | 
19 | Ac-GDDTLWENNWDDEDI-NH2 [Pep1] |  | chemical shift perturbations (CSPs) induced in the HSQC spectrum of ubiquitin (ubiquitin [5]; 1 mM 15-mer peptide added to 100 µM 15N-ubiquitin (120 µM for POLIIBP and ZFB)): much larger CSPs; Kd (ubiquitin [5]): 3000 ± 200 µM
20 | Ac-DLWEDDWDLWEDDWD-NH2 [PepDMD] |  | Kd (ubiquitin [5]): 480 ± 40 µM
21 | GDDTEWENNWDDEDI [Pep9, 15-mer variant of Dss1 UBS1, peptide array] | increased emission intensity | 

Source: PMC9381478, “A context-dependent and disordered ubiquitin-binding motif” (Cellular and Molecular Life Sciences: CMLS, 2022)
